Consider 19 compounds from patent US20040054182A1, “1h-imidazopyridine derivatives” (priority 2000, published 2004).

One data set has as its system human IL-1 beta. The data set is described as follows: Inhibitory action against IL-1 beta production in LPS-stimulated human PBMCs (sandwich ELISA of culture supernatant). The class given is cell-based. Conditions: 16 hours. The method, then: (§1) As an example of the excellent effects of the compounds of the present invention, experimental results of inhibitory actions against production of TNF-alpha and IL-1 beta in human cells will be shown below.
(§2) About 50 mL of whole blood was collected from each adult healthy volunteer by venepuncture, and poured into plastic tubes which containing 170 micro L of Novo-heparin 1000 (produced by Novo-Nordisk). Then, PBMCs (Peripheral Blood Mononuclear Cells) were separated using LeucoPREP™ (produced by Becton Dickinson) lymphocyte separation tube, and cultured with RPMI-1640 medium (produced by Nissui Pharmaceutical Co.) containing 2 mM L-glutamine (produced by Life Technologies), 2.5 U/mL penicillin-2.5 micro g/mL streptomycin solution (produced by Life Technologies) supplemented with 10% fetal calf serum (produced by Intergen Company) at 1×10^6 cells/mL.
(§3) Test compounds were dissolved in distilled ultra-pure water, dimethyl sulfoxide or 0.1 M hydrochloric acid at 20 micro M as far as possible, and then sequentially diluted with saline and used.
(§4) A hundred and eighty micro L of prepared human PBMCs were added to each well of 96-well plate (MicroTest III™ tissue culture plate; produced by Becton Dickinson) containing 10 micro L of adequate concentrations solution of test compounds. Then 30 minutes after, 10 micro L of 20 micro g/mL lipopolysaccharide (LPS) was added to each well, and cells in the well plate were covered with plastic lid and incubated for 16 hours at 37° C. in an atmosphere of 5% CO2.
(§5) The levels of human TNF-alpha and human IL-1 beta in culture supernatant were measured by constructed sandwich enzyme-linked immunosorbent assay method. Ninety-six-well microtiter plates were coated with diluted anti-cytokine antibody (capture/first-antibody). After washing the wells, the culture supernatant was diluted appropriately, added to each well and incubated. Then detection/second-antibody against cytokine and HRP (horseradish peroxidase)-conjugated/third-antibody against detection-antibody were added to wells sequentially, with interposed washing processes. After the final washing process, reaction of calorimetric quantification was started by addition of tetramethylbenzidine solution (produced by DAKO) to each well. After quenching the reaction by addition of 0.5 M sulfuric acid, optical absorbance of each well at 450 nm was measured by M-VmaxTM kinetic microplate reader (produced by Molecular Devices). Concentrations of cytokines were determined by Softmax™ (produced by Molecular Devices) quantification software in comparison with calibration curve derived from corresponding recombinant cytokines as standard. For measurement of human TNF-alpha, monoclonal mouse anti-human TNF-alpha (produced by ENDOGEN), polyclonal rabbit anti-human TNF-alpha (produced by Pharma Biotechnologie Hannover), peroxidase-conjugated donkey anti-rabbit IgG antibodies (produced by Jackson ImmunoRes. Labs.), and recombinant human TNF-alpha (produced by INTERGEN Company) were used for the capture-, detection-, HRP-conjugated-antibodies and the standard for calibration curve, respectively. […]
A general note: An ELISA detects its analyte on a solid surface through an enzyme-linked reagent.

A further data set concerns human TNF-alpha. The experiment in a line: Inhibitory action against TNF-alpha production in LPS-stimulated human PBMCs (sandwich ELISA of culture supernatant). Conditions: 16 hours. The class given is cell-based. The protocol:
as §1, §2, §3, §4, §5

Setting [1] is: administered concentration 0.01 micro mol/L.
Where [2] appears, read: administered concentration 0.03 micro mol/L.
The mark [3] stands for this setting: administered concentration 0.10 micro mol/L.
Setting [4] is: administered concentration 0.3 micro mol/L.
Where [5] appears, read: administered concentration 1.0 micro mol/L.

Structures can show the parent of a compound that is named as a salt.

For `FC(F)(F)c1nc2ccccc2c2c1nc(-c1ccc[nH]1)n2CCC1CNCCO1` (stereo not shown) [Example 102, 1-[2-(2-Morpholinyl)ethyl]-2-(2-pyrrolyl)-4-trifluoromethyl-1H-imidazo[4,5-c]-quinoline], the “Inhibitory action against IL-1 beta production in human cells (inhibitory percentages of cytokine production)” value in the data set with human IL-1 beta (setting [1]) was 81%; in the data set on human IL-1 beta (setting [2]), 67%; in the data set with human IL-1 beta (setting [3]), 48%; in the data set on human IL-1 beta (setting [4]), 0%; in the data set with human IL-1 beta (setting [5]), 0%. Besides, the “Inhibitory action against TNF-alpha production in human cells (inhibitory percentages of cytokine production)” value came out at 96% in the data set with human TNF-alpha (setting [1]); 84% with human TNF-alpha (setting [2]); 25% in the data set with human TNF-alpha (setting [3]); 23% with human TNF-alpha (setting [4]); 27% with human TNF-alpha (setting [5]).

Turning to `Cc1ccc2c(c1)nc(C(F)(F)F)c1nc(-c3cccs3)n(CCC3CCNCC3)c12` (as salt: trifluoroacetate) (hydrate or solvate) [Example 91, 7-Methyl-1-[2-(4-piperidyl)ethyl]-2-(2-thienyl)-4-trifluoromethyl-1H-imidazo-[4,5-c]quinoline], the melting point is 236 to 238 °C (dec.).

The compound `CNCC(=O)NCCn1c(-c2ccccc2)nc2c(C(F)(F)F)nc3ccccc3c21` [Example 127, 2-Methylamino-N-[2-(2-phenyl-4-trifluoromethyl-1H-imidazo[4,5-c]quinolin-1-yl)-ethyl]acetamide] registered a melting point of 208 to 209 °C.

On to `Cc1ccc2c(c1)nc(C(F)(F)F)c1nc(-c3ncc[nH]3)n(CCC3CCNCC3)c12` (as salt: trifluoroacetate) (hydrate or solvate) [Example 89, 2-(2-1H-Imidazolyl)-7-methyl-1-[2-(4-piperidyl)ethyl]-4-trifluoromethyl-1H-imidazo[4,5-c]quinoline], for which the melting point was 303 to 305 °C (dec.).

For the compound `Cc1cccc2c1nc(C(F)(F)F)c1nc(-c3cccs3)n(CCC3CCNCC3)c12` (as salt: trifluoroacetate) (hydrate or solvate) [Example 98, 6-Methyl-1-[2-(4-piperidyl)ethyl]-2-(2-thienyl)-4-trifluoromethyl-1H-imidazo-[4,5-c]quinoline], the melting point is 227 to 229 °C (dec.).

With `c1ccc(-c2nc3c(C4CC4)nc4ccccc4c3n2CCC2CCNCC2)cc1` (as salt: fumarate) (hydrate or solvate) [Example 110, 4-Cyclopropyl-2-phenyl-1-[2-(4-piperidyl)ethyl]-1H-imidazo[4,5-c]quinoline], the melting point is 142.5 to 147 °C (dec.).

`c1ccc(-c2nc3c(-c4ccco4)nc4ccccc4c3n2CCC2CCNCC2)cc1` registered a melting point of 224.5 to 225.5 °C.

Turning to `FC(F)(F)c1nc2ccccc2c2c1nc(-c1ccccc1)n2CCC1CC2CCC(C1)N2` (stereo not shown) (as salt: trifluoroacetate), the melting point was 249 to 251 °C (dec.).

For the compound `Cc1ccc2c(c1)nc(C(F)(F)F)c1nc(-c3nccs3)n(CCC3CCNCC3)c12` (as salt: trifluoroacetate) (hydrate or solvate) [Example 88, 7-Methyl-1-[2-(4-piperidyl)ethyl]-2-(2-thiazolyl)-4-trifluoromethyl-1H-imidazo-[4,5-c]quinoline], the melting point was 239 to 241 °C (dec.).

Regarding `CN(C)CC(=O)NCCn1c(-c2ccc[nH]2)nc2c(C(F)(F)F)nc3ccccc3c21.O=C(O)/C=C/C(=O)O` [Example 129, 2-Dimethylamino-N-[2-[2-(2-pyrrolyl)-4-trifluoromethyl-1H-imidazo[4,5-c]quinolin-1-yl]ethyl]acetamide fumarate], the melting point is 219 to 222 °C (dec.).

For `O=C(CCl)NCCn1c(-c2ccc[nH]2)nc2c(C(F)(F)F)nc3ccccc3c21` [Example 125, 2-chloro-N-[2-[2-(2-pyrrolyl)-4-trifluoromethyl-1H-imidazo-[4,5-c]quinolin-1-yl]ethyl]acetamide], the melting point lay in the range of 234 to 235 °C.

On to `Fc1ccc2c(c1)nc(C(F)(F)F)c1nc(-c3ncc[nH]3)n(CCC3CCNCC3)c12` (as salt: trifluoroacetate) (hydrate or solvate) [Example 83, 7-Fluoro-2-(2-1H-imidazolyl)-1-[2-(4-piperidyl)ethyl]-4-trifluoromethyl-1H-imidazo[4,5-c]quinoline], for which the melting point is 249 to 250 °C (dec.).

Consider `Cc1cccc2c1nc(C(F)(F)F)c1nc(-c3ccco3)n(CCC3CCNCC3)c12` (as salt: trifluoroacetate) (hydrate or solvate), for which the melting point is 232 to 234 °C (dec.).

Consider `CN(C)CCn1c(-c2ccc[nH]2)nc2c(C(F)(F)F)nc3ccccc3c21` (as salt: fumarate) [Example 51, 1-(2-Dimethylaminoethyl)-2-(2-pyrrolyl)-4-trifluoromethyl-1H-imidazo[4,5-c]-quinoline], for which the melting point is 228 to 230 °C (dec.).

`FC(F)(F)c1nc2ccccc2c2c1nc(-c1ccc[nH]1)n2CCC1CNCCO1` (stereo not shown) (as salt: trifluoroacetate) [Example 102, 1-[2-(2-Morpholinyl)ethyl]-2-(2-pyrrolyl)-4-trifluoromethyl-1H-imidazo[4,5-c]-quinoline]: the melting point is 254 to 258 °C (dec.).

As to `O=C(CCl)NCCn1c(-c2ccccc2)nc2c(C(F)(F)F)nc3ccccc3c21` [Example 124, 2-chloro-N-[2-(2-phenyl-4-trifluoromethyl-1H-imidazo[4,5-c]quinolin-1-yl)ethyl]acetamide], the melting point fell in the range of 230.5 to 231.5 °C.

For the compound `Fc1ccc2c(c1)nc(C(F)(F)F)c1nc(-c3ccc[nH]3)n(CCC3CCNCC3)c12` (as salt: trifluoroacetate) (hydrate or solvate) [Example 81, 7-Fluoro-1-[2-(4-piperidyl)ethyl]-2-(2-pyrrolyl)-4-trifluoromethyl-1H-imidazo-[4,5-c]quinoline], the melting point is 252 to 254 °C (dec.).

For the compound `FC(F)(F)c1nc2cc(Cl)ccc2c2c1nc(C1CCCC1)n2CCC1CCNCC1` (as salt: trifluoroacetate), the melting point was 246 to 248 °C (dec.).

Compound `NCCn1c(-c2ccc[nH]2)nc2c(C(F)(F)F)nc3ccccc3c21` [Example 109, 1-(2-Aminoethyl)-2-(2-pyrrolyl)-4-trifluoromethyl-1H-imidazo[4,5-c]quinoline] gave a melting point of 195.5 to 196.5 °C.

The term melting point denotes the temperature, or range, at which the solid turns liquid.
